Results from US7112607B2, “Allosteric adenosine receptor modulators” (King Pharmaceuticals Research & Development, Inc., priority 1997, dated 2006).

Molecular target: T1, human recombinant A1 adenosine receptors (Homo sapiens, UniProt P30542)
T1 construct: expressed in transfected cells; host or cells: Chinese hamster ovary (CHO) cells, CHO:huA1, G-418 selected
T1 sequence (P30542 1-326): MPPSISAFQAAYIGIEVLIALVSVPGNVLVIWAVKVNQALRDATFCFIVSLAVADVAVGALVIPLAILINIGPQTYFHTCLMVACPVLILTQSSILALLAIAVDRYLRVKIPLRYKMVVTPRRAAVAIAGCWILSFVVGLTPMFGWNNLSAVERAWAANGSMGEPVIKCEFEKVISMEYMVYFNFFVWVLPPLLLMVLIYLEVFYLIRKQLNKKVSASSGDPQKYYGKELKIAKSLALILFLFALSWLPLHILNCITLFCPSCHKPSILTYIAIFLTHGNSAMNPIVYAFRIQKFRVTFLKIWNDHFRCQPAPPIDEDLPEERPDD
Experiment: Allosteric enhancement: reduction of cAMP content of CHO:huA1 cells (radioimmunoassay)
Format: cell-based
Conditions: forskolin 1 μM, rolipram 20 μM, CPA 0.01 nM, adenosine deaminase, 6 min at 36° C.; for inhibition at 0.01 µM / inhibition at 0.1 µM / inhibition at 1 µM / inhibition at 10 µM: 0.1 h, read-out: Change in cAMP Content from Control (mean + SEM)
Experimental: Chinese hamster ovary cells expressing human recombinant A1 adenosine receptors (CHO:huA1 cells) at a density of approximately 8000 fmol/mg protein were prepared as previously described (Kollias-Baker et al., (1997), J. Pharmacol. Exp. Ther. 281: 761–768) and aliquots of the cells at low passage numbers were frozen and stored in liquid nitrogen. When compounds were tested, an aliquot of CHO:huA1 cells were rapidly thawed after removal from liquid nitrogen, then grown in Ham's F12 culture medium with 10% fetal bovine serum and 0.5 mg/mL of antibiotic G-418 (Shryock, Ozeck, and Belardinelli (1998), Mol. Pharmacol 53: 886–893). Cells were passaged thrice weekly. Aliquots of cells were placed into 12-well plates with culture medium, serum, and antibiotic for 48 hours, by which time the cells had grown to a confluent monolayer.
Allosteric enhancement was measured as the action of a test compound at different concentrations (0.01, 0.1, 1 and 10 μM) to reduce the cAMP content of CHO:huA1 cells. To initiate an experiment, growth medium was removed from the 12-well plates and cells were washed once with warm Hanks' buffered saline. The wash solution was then removed and replaced with fresh Hanks' solution containing forskolin (1 μM), rolipram (20 μM), N^6-cyclopentyladenosine (CPA, 0.01 nM), adenosine deaminase (2 U/mL), and the test compound. Forskolin was used to stimulate the activity of adenylyl cyclase, rolipram to inhibit cAMP phosphodiesterase, adenosine deaminase to degrade endogenous adenosine, and CPA to cause a small increase of the number of activated adenosine receptors. After 6 min of incubation at 36° C. in the presence of test compound, the incubation solution was removed and hydrochloric acid (final concentration 50 mM) was added to terminate drug action.
The content of cAMP in acidified extracts of cells was determined by radioimmunoassay as previously described (Kollias-Baker et al., (1997), J. Pharmacol. Exp. Ther. 281: 761–768). Because the magnitude of the effects of allosteric enhancers on CHO:huA1 cells changed subtly with passage number and differed slightly among different aliquots of cells, the actions of the test compounds and the action of a reference compound (PD 81,723) were assessed in each experiment. The effect of each test compound on cAMP content is presented in Table 1 as a percentage of the value of cAMP content in the absence of drug (control, 100%). Each value is a mean±standard error of 6 determinations in each of the number of experiments indicated in the “n” column of the table.

Row | Compound | inhibition at 0.01 µM (0.01 μM test compound) [%] | inhibition at 0.1 µM (0.1 μM test compound) [%] | inhibition at 1 µM (1 μM test compound) [%] | inhibition at 10 µM (10 μM test compound) [%] | Change in cAMP Content from Control (mean + SEM) (0.01 μM test compound) [%] | Change in cAMP Content from Control (mean + SEM) (0.1 μM test compound) [%] | Change in cAMP Content from Control (mean + SEM) (1 μM test compound) [%] | Change in cAMP Content from Control (mean + SEM) (10 μM test compound) [%]
1 | Nc1sc2c(c1C(=O)c1ccc(I)c3ccccc13)CCC2 [Example 24, (2-Amino-1,6-dihydro-4H-cyclopenta[b]thiophen-3-yl)-(4-iodonaphthalen-1-yl)-methanone] | 6 ± 3 | 8 ± 3 | 22 ± 4 | 75 ± 1 |  |  |  | 
2 | Nc1sc2c(c1C(=O)c1ccc(Cl)c3ccccc13)CCC2 [Example 25, (2-Amino-5,6-dihydro-4H-cyclopenta[b]thiophen-3-yl)-(4-chloronaph-thalen-1-yl)-methanone] |  |  |  |  | −10 ± 2 | −15 ± 4 | −27 ± 2 | −55 ± 2
3 | Nc1sc2c(c1C(=O)c1ccc(I)c3ccccc13)CCCC2 [Example 26, (2-Amino-4,5,6,7-tetrahydrobenzo[b]thiophen-3-yl)-(4-iodonaphthalen-1-yl)-methanone] | 3 ± 4 | 4 ± 4 | 24 ± 5 | 67 ± 2 |  |  |  | 
4 | COc1ccc(C(=O)c2c(N)sc3c2CCCC3)c2ccccc12 [Example 27, (2-Amino-4,5,6,7-tetrahydrobenzo[b]thiophen-3-yl)-(4-methoxynaph-thalen-1-yl)-methanone] |  |  |  |  | 5 ± 4 | −5 ± 4 | −3 ± 3 | −17 ± 1
5 | Nc1sc2c(c1C(=O)c1ccc(Cl)c3ccccc13)CCCC2 [Example 28, (2-Amino-4,5,6,7-tetrahydrobenzo[b]thiophen-3-yl)-(4-chloronaphthalen-1-yl)-methanone] | 11 ± 3 | -3 ± 3 | 25 ± 4 | 44 ± 2 |  |  |  | 
6 | Nc1sc2c(c1C(=O)c1ccc(Br)c3ccccc13)CCCC2 [Example 29, (2-Amino-4,5,6,7-tetrahydrobenzo[b]thiophen-3-yl)-(4-bromonaphthalen-1-yl)-methanone] | 6 ± 3 | 10 ± 2 | 29 ± 2 | 72 ± 1 |  |  |  | 
7 | Nc1sc2c(c1C(=O)c1ccc3ccccc3c1)CCCC2 [Example 30, (2-Amino-4,5,6,7-tetrahydrobenzo[b]thiophen-3-yl)-naphthalen-2-yl-methanone] | 13 ± 4 | 24 ± 3 | 28 ± 2 | 42 ± 3 |  |  |  | 
8 | Nc1sc2c(c1C(=O)c1ccc3ccccc3c1)CCC2 [Example 31, (2-Amino-5,6-dihydro-4H-cyclopenta[b]thiophen-3-yl)-naphthalen-2-yl-methanone] | 19 ± 3 | 14 ± 4 | 15 ± 3 | 51 ± 3 |  |  |  | 
9 | Nc1sc2c(c1C(=O)c1ccc3ccccc3c1)CCN(Cc1ccccc1)C2 [Example 32, (2-Amino-6-benzyl-4,5,6,7-tetrahydrothieno[2,3-c]pyridin-3-yl)-naphthalen-2-yl-methanone] | 11 ± 4 | 12 ± 3 | 18 ± 3 | 60 ± 4 |  |  |  | 
10 | Cc1sc(N)c(C(=O)c2ccc3ccccc3c2)c1C [Example 33, (2-Amino-4,5-dimethylthiophen-3-yl)-naphthalen-2-yl-methanone] | 1 ± 3 | 4 ± 3 | 8 ± 3 | 28 ± 3 |  |  |  | 
11 | Cc1sc(N)c(C(=O)c2cccc(C(F)(F)F)c2)c1C [PD 81,723, reference compound] |  |  |  |  | −1 ± 2 | −7 ± 2 | −13 ± 1 | −50 ± 1
